From patent publication US8569281B2, “Compounds and their administration for treating a neurodegenerative disease as well as a method for identifying a compound capable of inhibiting a kinase, such as LRRK” (Medical Research Council Technology, priority 2010, dated 2013)
Where two headings read alike, the source gives them in different places.

Biological target: LRRK2 (Homo sapiens (Human), UniProt Q5S007)
Assay: In Vitro LRRK2 Assay (LabChip 3000, fluorescently-labeled peptide substrate)
Assay type: biochemical
Conditions: read-out: Ki (μM), affinity values for LRRK2
Method: This assay was used to determine a compound's potency in inhibiting activity of LRRK2 by determining, Kiapp, IC50, or percent inhibition values. In a polypropylene plate, LRRK2, fluorescently-labeled peptide substrate, ATP and test compound were incubated together. Using a LabChip 3000 (Caliper Life Sciences), after the reaction the substrate was separated by capillary electrophoresis into two populations: phosphorylated and unphosphorylated. The relative amounts of each were quantitated by fluorescence intensity. LRRK2 Ki was determined according to the equation: Y=V0*(1−((x+Ki*(1+S/Km)+Et)/(2*Et)−(((x+Ki*(1+S/Km)+Et)^2−(4*Et*x))^0.5)/(2*Et))).
Ki values in Table 4 and elsewhere herein are shown in μM.
Assay conditions and materials used were as follows:
Compound Plate Preparation:
For serial dilutions, 34.6 μl DMSO was added to columns 3-24.
Total and Blank Preparation:
In Complete Reaction Buffer, substrate was diluted to 4 μM. Equal volumes of Complete Reaction Buffer and 4 μM substrate were combined to obtain the blank. Equal volumes of Complete Reaction Buffer and 4 μM substrate were combined and to the combined solution was added 2× final LRRK2 concentration.
To a 50 μl polypropylene plate, 5 μl/well buffer/substrate was added by hand to Blank wells. A Biomek FX was used to start the kinase reaction (“PLK SAR 23 ATP”). The following were added to the appropriate wells: • 2 μl compound+23 μl ATP; • 5 μl/well compound/ATP in Assay Plate; • 5 μl/well kinase/substrate in Assay Plate;
The plate was incubated for 2 hours in the dark. Biomek FX was used to stop the kinase reaction (“PLK Stop”), and 10 μl/well Stop solution was added to the Assay Plate. Results were read on the LabChip 3000.
The LabChip 3000 was run using the job “LRRK2 IC50” with the following job settings: • Pressure: −1.4 psi • Downstream voltage: −500 V • Upstream voltage: −2350 V • Post sample buffer sip time: 75 seconds • Post dye buffer sip time: 75 seconds • Final delay time: 200 seconds Parkinson's Disease Animal Model

[1] = ATP 130 μM, substrate 1 μM, 2 hours, ambient temperature, LRRK2 variant not given

Sequence of LRRK2 (Q5S007 whole entry G2019S): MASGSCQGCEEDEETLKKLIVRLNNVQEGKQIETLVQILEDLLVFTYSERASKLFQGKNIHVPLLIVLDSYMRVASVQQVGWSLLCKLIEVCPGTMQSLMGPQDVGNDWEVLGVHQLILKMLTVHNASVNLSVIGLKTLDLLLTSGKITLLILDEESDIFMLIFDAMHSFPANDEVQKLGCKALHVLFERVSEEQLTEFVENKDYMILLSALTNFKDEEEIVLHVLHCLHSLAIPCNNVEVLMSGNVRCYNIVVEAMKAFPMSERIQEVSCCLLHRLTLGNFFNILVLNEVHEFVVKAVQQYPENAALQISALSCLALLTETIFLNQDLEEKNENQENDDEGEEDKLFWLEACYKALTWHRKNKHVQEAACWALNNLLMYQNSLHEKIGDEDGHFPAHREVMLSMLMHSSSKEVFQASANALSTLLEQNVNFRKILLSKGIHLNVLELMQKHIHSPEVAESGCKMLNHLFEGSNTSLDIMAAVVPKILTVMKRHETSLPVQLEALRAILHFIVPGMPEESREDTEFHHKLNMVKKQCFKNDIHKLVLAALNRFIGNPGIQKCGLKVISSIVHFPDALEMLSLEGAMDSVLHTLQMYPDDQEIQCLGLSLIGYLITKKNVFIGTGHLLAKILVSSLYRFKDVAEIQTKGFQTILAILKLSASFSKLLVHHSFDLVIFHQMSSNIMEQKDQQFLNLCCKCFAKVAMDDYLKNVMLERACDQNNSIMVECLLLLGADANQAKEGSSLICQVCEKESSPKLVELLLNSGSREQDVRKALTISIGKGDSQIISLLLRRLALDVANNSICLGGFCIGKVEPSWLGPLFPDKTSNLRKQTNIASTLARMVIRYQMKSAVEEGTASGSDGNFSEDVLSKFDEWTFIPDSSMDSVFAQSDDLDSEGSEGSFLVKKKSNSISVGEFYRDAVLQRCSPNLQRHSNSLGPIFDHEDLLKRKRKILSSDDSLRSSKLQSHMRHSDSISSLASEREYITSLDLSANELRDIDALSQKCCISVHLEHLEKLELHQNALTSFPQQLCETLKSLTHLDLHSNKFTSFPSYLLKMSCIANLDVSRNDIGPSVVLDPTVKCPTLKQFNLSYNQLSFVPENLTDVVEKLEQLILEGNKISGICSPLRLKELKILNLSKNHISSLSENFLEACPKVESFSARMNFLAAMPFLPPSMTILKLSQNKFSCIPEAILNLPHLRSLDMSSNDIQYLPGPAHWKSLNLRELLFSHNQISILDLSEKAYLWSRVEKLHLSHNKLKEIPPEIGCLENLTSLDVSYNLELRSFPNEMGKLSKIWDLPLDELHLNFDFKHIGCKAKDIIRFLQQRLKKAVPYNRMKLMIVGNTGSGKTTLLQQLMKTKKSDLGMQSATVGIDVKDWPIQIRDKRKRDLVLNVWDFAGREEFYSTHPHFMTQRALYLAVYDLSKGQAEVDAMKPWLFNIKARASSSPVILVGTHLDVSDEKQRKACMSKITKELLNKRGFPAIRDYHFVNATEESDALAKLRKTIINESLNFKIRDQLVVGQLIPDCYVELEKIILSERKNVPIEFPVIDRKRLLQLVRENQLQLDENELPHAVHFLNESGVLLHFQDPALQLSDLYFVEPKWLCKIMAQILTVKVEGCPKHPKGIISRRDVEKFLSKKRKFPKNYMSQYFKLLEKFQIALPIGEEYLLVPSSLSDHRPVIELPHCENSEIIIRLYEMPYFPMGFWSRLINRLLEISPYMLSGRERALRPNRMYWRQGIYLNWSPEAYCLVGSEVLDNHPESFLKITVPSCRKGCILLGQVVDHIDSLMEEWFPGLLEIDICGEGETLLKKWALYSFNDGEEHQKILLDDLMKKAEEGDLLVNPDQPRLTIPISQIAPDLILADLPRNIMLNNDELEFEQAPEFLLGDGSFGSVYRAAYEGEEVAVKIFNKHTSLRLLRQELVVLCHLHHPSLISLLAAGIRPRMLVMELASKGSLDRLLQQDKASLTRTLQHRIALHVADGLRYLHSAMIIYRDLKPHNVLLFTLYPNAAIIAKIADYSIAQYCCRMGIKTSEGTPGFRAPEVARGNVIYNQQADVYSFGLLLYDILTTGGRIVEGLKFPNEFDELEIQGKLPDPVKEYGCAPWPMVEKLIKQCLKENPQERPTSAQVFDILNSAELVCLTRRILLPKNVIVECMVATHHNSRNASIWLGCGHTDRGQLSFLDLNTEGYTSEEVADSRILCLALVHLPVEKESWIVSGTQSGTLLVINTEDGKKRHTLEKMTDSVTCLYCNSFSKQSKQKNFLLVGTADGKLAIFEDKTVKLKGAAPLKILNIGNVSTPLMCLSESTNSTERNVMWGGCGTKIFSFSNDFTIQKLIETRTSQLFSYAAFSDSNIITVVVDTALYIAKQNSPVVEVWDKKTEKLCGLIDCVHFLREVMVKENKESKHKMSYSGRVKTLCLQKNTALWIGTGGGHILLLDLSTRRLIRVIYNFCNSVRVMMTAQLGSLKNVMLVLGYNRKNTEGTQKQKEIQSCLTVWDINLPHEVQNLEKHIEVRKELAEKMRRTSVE

Row | Molecule | Ki [1] | Ki
1 | 3-(1-((2,2-difluorocyclopropyl)methyl)-1H-benzo[d]imidazol-5-yl)-4-(tetrahydro-2H-pyran-4-yloxy)-1H-pyrazolo[4,3-c]pyridine [Example 127] | 0.023 µM | 
2 | Clc1ccccc1C#Cc1[nH]nc2ccnc(OC3CCOCC3)c12 [Example 132, 3-((2-Chlorophenyl)ethynyl)-4-(tetrahydro-2H-pyran-4-yloxy)-1H-pyrazolo[4,3-c]pyridine] | 0.005 µM | 
3 | c1cc2[nH]nc(-c3cnn(CC4CCC4)c3)c2c(OC2CCCCC2)n1 [Example 41, 3-[1-(Cyclobutylmethyl)-1H-pyrazol-4-yl]-4-(cyclohexyloxy)-1H-pyrazolo[4,3-c]pyridine] | 0.055 µM | 
4 | 3-(1-(oxetan-3-yl)-1H-benzo[d]imidazol-5-yl)-4-(tetrahydro-2H-pyran-4-yloxy)-1H-pyrazolo[4,3-c]pyridine [Example 125] |  | 0.056 µM
5 | COc1nccc2n[nH]c(-c3ccc(C(=O)N4CCOCC4)c(Cl)c3)c12 [Example 109, (2-Chloro-4-(4-methoxy-1H-pyrazolo[4,3-c]pyridin-3-yl)phenyl)(morpholino)methanone] | 0.209 µM | 
6 | COc1nccc2[nH]nc(-c3ccnc(C(F)(F)F)c3)c12 [Example 108, 4-Methoxy-3-(2-(trifluoromethyl)pyridin-4-yl)-1H-pyrazolo[4,3-c]pyridine] | 0.075 µM | 
7 | c1coc(-c2n[nH]c3ccnc(OC4CCOCC4)c23)c1 [Example 37, 3-(Furan-2-yl)-4-(tetrahydro-2H-pyran-4-yloxy)-1H-pyrazolo[4,3-c]pyridine] | 0.132 µM | 
8 | 3-(1-isopropyl-1H-benzo[d]imidazol-5-yl)-4-(tetrahydro-2H-pyran-4-yloxy)-1H-pyrazolo[4,3-c]pyridine [Example 123] | 0.02 µM | 
9 | COc1nccc2[nH]nc(-c3ccnc(N4[C@@H]5CC[C@H]4COC5)c3)c12 [Example 117, 8-(4-(4-Methoxy-1H-pyrazolo[4,3-c]pyridin-3-yl)pyridin-2-yl)-3-oxa-8-azabicyclo[3.2.1]octane] | 0.08 µM | 
10 | c1cc2[nH]nc(-c3cnn(CC4CCOCC4)c3)c2c(OC2CCOCC2)n1 [Example 93, 3-(1-((Tetrahydro-2H-pyran-4-yl)methyl)-1H-pyrazol-4-yl)-4-(tetrahydro-2H-pyran-4-yloxy)-1H-pyrazolo[4,3-c]pyridine] | 0.011 µM | 
11 | CC1CCCN(C(=O)CCc2[nH]nc3ccnc(NC4CCOCC4)c23)C1 (stereo in doubt) [Example 2, 1-[(3R)-3-methylpiperidin-1-yl]-3-[4-(tetrahydro-2H-pyran-4-ylamino)-1H-pyrazolo-[4,3-c]pyridin-3-yl]propan-1-one] | 0.034 µM | 
12 | Fc1c(-c2n[nH]c3ccnc(OC4CCOCC4)c23)ccnc1N1CCOCC1 [Example 103, 4-(3-Fluoro-4-(4-(tetrahydro-2H-pyran-4-yloxy)-1H-pyrazolo[4,3-c]pyridin-3-yl)pyridin-2-yl)morpholine] | 0.046 µM | 
13 | COc1cc(-c2n[nH]c3ccnc(OC)c23)ccn1 [Example 106, 4-Methoxy-3-(2-methoxypyridin-4-yl)-1H-pyrazolo[4,3-c]pyridine] | 0.08 µM | 
14 | COc1nccc2[nH]nc(-c3cnn(CC(F)(F)F)c3)c12 [Example 88, 4-Methoxy-3-(1-(2,2,2-trifluoroethyl)-1H-pyrazol-4-yl)-1H-pyrazolo[4,3-u]pyridine] | 0.025 µM | 
15 | c1cc(-c2n[nH]c3ccnc(NC4CCOCC4)c23)cc(N2CCOCC2)n1 [Example 9, 3-[2-(Morpholin-4-yl)pyridin-4-yl]-N-(tetrahydro-2H-pyran-4-yl)-1H-pyrazolo[4,3-c]pyridin-4-amine] | 0.027 µM | 
16 | O=C(c1ccc(-c2[nH]nc3ccnc(OC4CCOCC4)c23)cc1)N1CCOCC1 [Example 133, Morpholino(4-(4-(tetrahydro-2H-pyran-4-yloxy)-1H-pyrazolo[4,3-c]pyridin-3-yl)phenyl)methanone] | 0.076 µM | 
17 | COc1nccc2[nH]nc(-c3cnn(C4COC4)c3)c12 [Example 86] | 0.031 µM | 
18 | COc1cc(-c2n[nH]c3ccnc(OC4CCOCC4)c23)ccn1 [Example 101, 3-(2-Methoxypyridin-4-yl)-4-(tetrahydro-2H-pyran-4-yloxy)-1H-pyrazolo[4,3-c]pyridine] | 0.022 µM | 
19 | c1cc(-c2n[nH]c3ccnc(OC4CCOCC4)c23)cc(N2CCC2)n1 [Example 114, 3-(2-(Azetidin-1-yl)pyridin-4-yl)-4-(tetrahydro-2H-pyran-4-yloxy)-1H-pyrazolo[4,3-c]pyridine] | 0.009 µM | 
20 | O=C(c1ccc(CCc2n[nH]c3ccnc(NC4CCCCC4)c23)cc1)N1CCN(C2CC2)CC1 [Example 8, (4-{2-[4-(Cyclohexylamino)-1H-pyrazolo[4,3-c]pyridin-3-yl]ethyl}phenyl)(4-cyclopropylpiperazin-1-yl)methanone] | 0.017 µM | 
21 | O=C(CCc1[nH]nc2ccnc(OC3CCCCC3)c12)N1CCC[C@H](c2ccccc2)C1 [Example 6, 3-[4-(Cyclohexyloxy)-1H-pyrazolo[4,3-c]pyridin-3-yl]-1-[(3R)-3-phenylpiperidin-1-yl]propan-1-one] | 0.014 µM | 

Further lines, with some results ahead:

Row | Ki [1] | Molecule | Ki
22 | 0.012 µM | CCn1cc(-c2cc(-c3n[nH]c4ccnc(OC5CCOCC5)c34)ccn2)cn1 [Example 213, 3-(2-(1-ethyl-1H-pyrazol-4-yl)pyridin-4-yl)-4-(tetrahydro-2H-pyran-4-yloxy)-1H-pyrazolo[4,3-c]pyridine] | 
23 | 0.018 µM | CN(C)C(=O)c1cccc(-c2cc(-c3n[nH]c4ccnc(OC5CCOCC5)c34)ccn2)c1 [Example 203, N,N-dimethyl-3-(4-(4-(tetrahydro-2H-pyran-4-yloxy)-1H-pyrazolo[4,3-c]pyridin-3-yl)pyridin-2-yl)benzamide] | 
24 | 0.025 µM | CNC(=O)c1cccc(-c2n[nH]c3ccnc(OC4CCOCC4)c23)c1 [Example 160, N-Methyl-3-(4-(tetrahydro-2H-pyran-4-yloxy)-1H-pyrazolo[4,3-c]pyridin-3-yl)benzamide] | 
25 | 0.448 µM | c1cc(-c2n[nH]c3ccnc(OC4CCOCC4)c23)c2cc[nH]c2c1 [Example 158, 3-(1H-Indol-4-yl)-4-(tetrahydro-2H-pyran-4-yloxy)-1H-pyrazolo[4,3-c]pyridine] | 
26 | 0.026 µM | c1cc(-c2cc(-c3n[nH]c4ccnc(OC5CCOCC5)c34)ccn2)ccn1 [Example 198, 3-(2,4′-bipyridin-4-yl)-4-(tetrahydro-2H-pyran-4-yloxy)-1H-pyrazolo[4,3-c]pyridine] | 
27 | 0.495 µM | CN1CCc2c(-c3n[nH]c4ccnc(OC5CCOCC5)c34)cccc21 [Example 157, 3-(1-Methylindolin-4-yl)-4-(tetrahydro-2H-pyran-4-yloxy)-1H-pyrazolo[4,3-c]pyridine] | 
28 | 0.013 µM | Cn1ncc2cc(-c3n[nH]c4ccnc(OC5CCOCC5)c34)ccc21 [Example 140, 3-(1-Methyl-1H-indazol-5-yl)-4-(tetrahydro-2H-pyran-4-yloxy)-1H-pyrazolo[4,3-c]pyridine] | 
29 | 0.023 µM | COc1nccc2[nH]nc(-c3cnn(C4CCOC4)c3)c12 (stereo not drawn) [Example 234, 4-methoxy-3-(1-(tetrahydrofuran-3-yl)-1H-pyrazol-4-yl)-1H-pyrazolo[4,3-c]pyridine] | 
30 | 0.04 µM | COc1cc(Nc2[nH]nc3ccnc(OC4CCOCC4)c23)ccn1 [Example 162, N-(2-methoxypyridin-4-yl)-4-(tetrahydro-2H-pyran-4-yloxy)-1H-pyrazolo[4,3-c]pyridin-3-amine] | 
